Laboratory results published in ChEMBL document CHEMBL1201862, “PubChem BioAssay data set” (2004).
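Where inhibition never reached the appropriate level, the endpoint shown equals the highest concentration tested. Otherwise, values were interpolated linearly from a five-concentration, 48-hour dose response in 96-well plates. Here, GI50 denotes the concentration required for 50% inhibition of growth.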 Activity calls are given as the source filed them. Cut-off read from the data, not from the text of the source: active = GI50 up to about 1.1 µM and inactive = higher.

Experiments:
Test in all cases: inhibition of tumour cell growth, NCI panel, 48 h
[1] = system: 786-0
[2] = system: A549
[3] = system: CAKI-1
[4] = system: IGROV-1
[5] = system: KM-20L2
[6] = system: KM12
[7] = system: M14
[8] = system: OVCAR-4
[9] = system: SF-295
[10] = system: SF-539
[11] = system: SK-MEL-28
[12] = system: SK-MEL-5
[13] = system: SK-OV-3
[14] = system: SN12C
[15] = system: SR
[16] = system: UACC-62

Measured: GI50

CN(C)CCNC(=O)c1cccc2ncc(-c3ccccc3)nc12
inactive: [1] 10 µM | [2] 6.9 µM | [3] 6.58 µM | [4] 20.5 µM | [5] 3.81 µM | [6] 11.8 µM | [7] 13.9 µM | [8] 8.77 µM | [9] 14.2 µM | [10] 4.51 µM | [11] 18.2 µM | [12] 11.5 µM | [13] 16.4 µM | [14] 6.14 µM | [15] 1.9 µM | [16] 13.8 µM

OC(c1cc2ccccc2[nH]1)C(O)(c1cc2ccccc2[nH]1)c1cc2ccccc2[nH]1 (stereo not drawn)
inactive: [1] 6.89 µM | [2] 12.6 µM | [3] 19.9 µM | [4] 8.81 µM | [5] 10.1 µM | [6] 8 µM | [9] 7.23 µM | [10] 41.4 µM | [11] 19.1 µM | [12] 11.6 µM | [13] 10.4 µM | [14] 5.53 µM | [15] 7.69 µM | [16] 5.97 µM

O=C1OC2(c3ccccc3Oc3ccccc32)c2ccccc21
inactive: [1] > 100 µM | [2] > 100 µM | [3] > 100 µM | [4] > 100 µM | [5] > 100 µM | [6] > 100 µM | [7] > 100 µM | [8] > 100 µM | [9] > 100 µM | [10] > 100 µM | [11] > 100 µM | [12] > 100 µM | [13] > 100 µM | [14] > 100 µM | [15] > 100 µM | [16] > 100 µM

O=C(/C=C/c1ccccc1O)c1cccc2ccccc12
inactive: [1] 58.7 µM | [2] > 80.2 µM | [3] > 92.9 µM | [4] > 51.4 µM | [5] > 100 µM | [6] 40.3 µM | [7] > 100 µM | [8] 56.8 µM | [9] > 100 µM | [10] 76.4 µM | [11] > 100 µM | [12] > 100 µM | [13] > 100 µM | [14] 44.4 µM | [15] 31.3 µM | [16] > 100 µM

Cc1ccc(SCC(=O)C2=C(O)CCCC2=O)cc1
inactive: [1] > 100 µM | [2] > 100 µM | [3] > 100 µM | [4] > 100 µM | [5] > 100 µM | [6] > 100 µM | [7] > 100 µM | [8] > 100 µM | [9] > 100 µM | [10] > 100 µM | [11] > 100 µM | [12] > 100 µM | [13] > 100 µM | [14] > 100 µM | [15] > 100 µM | [16] > 100 µM

O=C(CCn1[nH]c(=O)c(Cl)c(Cl)c1=O)NOCCCc1ccccc1
inactive: [1] > 100 µM | [2] > 100 µM | [3] > 100 µM | [4] > 100 µM | [5] > 100 µM | [6] > 100 µM | [7] > 100 µM | [8] > 100 µM | [9] > 100 µM | [10] > 100 µM | [11] > 100 µM | [12] > 100 µM | [14] > 100 µM | [15] > 100 µM | [16] > 100 µM

Cc1cccc(C(C)(C)C)c1NC(=O)C(=O)C(c1cnc2ccccc2n1)[N+](=O)[O-] (stereo not drawn)
inactive: [1] > 100 µM | [2] > 100 µM | [3] > 100 µM | [4] > 100 µM | [5] > 100 µM | [6] > 100 µM | [7] > 100 µM | [8] > 100 µM | [9] > 100 µM | [10] > 100 µM | [11] > 100 µM | [12] > 100 µM | [13] > 100 µM | [14] > 100 µM | [15] > 100 µM | [16] > 100 µM

O=c1[nH]cnc(NC2C=C(CO)C(O)C2O)c1[N+](=O)[O-] (stereo not drawn)
inactive: [1] > 46.2 µM | [2] > 83.2 µM | [3] > 100 µM | [4] > 100 µM | [5] > 100 µM | [6] > 100 µM | [7] > 100 µM | [8] > 100 µM | [9] > 100 µM | [10] > 100 µM | [11] > 100 µM | [12] > 100 µM | [13] > 100 µM | [14] > 100 µM | [15] > 100 µM | [16] > 100 µM

CC1=N/C(=C\c2ccc(N)cc2)C(=O)N1Nc1nnc(NN2C(=O)/C(=C/c3ccc(N)cc3)N=C2C)c2ccccc12
inactive: [1] 32.5 µM | [2] > 100 µM | [4] 85.9 µM | [5] > 100 µM | [6] 37.6 µM | [7] > 100 µM | [8] 33 µM | [9] 26.6 µM | [10] 24.8 µM | [11] > 100 µM | [12] 45.2 µM | [14] 96.2 µM | [15] 30.1 µM | [16] 54.5 µM

CC(=O)O[C@H]1CSC[C@@H](OC(C)=O)C1[N+](=O)[O-] (stereo partly drawn)
inactive: [1] 19.2 µM | [2] > 100 µM | [3] 48.6 µM | [4] > 100 µM | [5] > 100 µM | [6] 63 µM | [7] 29.6 µM | [8] 54.8 µM | [9] > 100 µM | [10] 43.8 µM | [11] 26.8 µM | [12] 47.8 µM | [13] > 100 µM | [14] > 100 µM | [16] 65.8 µM

CCOP1(=O)C=C(C)C(Cl)=C(C)C1 (stereo not drawn)
inactive: [1] 28.3 µM | [2] 21.1 µM | [4] 56.1 µM | [5] 32.7 µM | [6] 15.8 µM | [7] 17.1 µM | [8] 24.2 µM | [9] 47.1 µM | [10] 23.1 µM | [11] 17.3 µM | [12] 23.1 µM | [13] 60.3 µM | [14] 21 µM | [15] 27.2 µM | [16] 14.9 µM

CN(/N=C/c1cccc2cccnc12)c1c([N+](=O)[O-])cc([N+](=O)[O-])cc1[N+](=O)[O-]
inactive: [1] > 100 µM | [2] 46.8 µM | [3] > 100 µM | [4] > 100 µM | [5] > 100 µM | [6] 25.2 µM | [7] > 100 µM | [8] > 100 µM | [9] > 100 µM | [10] > 100 µM | [11] > 100 µM | [12] 64.9 µM | [13] > 100 µM | [14] > 100 µM | [16] > 100 µM

C/C(CCn1[nH]c(=O)ccc1=O)=N\Nc1ccc([N+](=O)[O-])cc1[N+](=O)[O-]
inactive: [1] > 100 µM | [2] > 100 µM | [3] > 100 µM | [4] > 100 µM | [5] 33.7 µM | [6] 33.5 µM | [7] 26 µM | [8] > 100 µM | [9] 20.5 µM | [10] 95.5 µM | [11] > 100 µM | [12] 41.8 µM | [14] > 100 µM | [15] > 100 µM | [16] 5.9 µM

COc1ccc2cc1Oc1ccc(cc1)CC1c3cc(c(OC)cc3CCN1C)Oc1c3c(cc4c1C(C2)N(C)CC4)OCO3 (stereo not drawn)
inactive: [1] 11.5 µM | [2] 16 µM | [4] 15.1 µM | [5] 2.08 µM | [6] 12.9 µM | [7] 1.87 µM | [8] 4.58 µM | [9] 10.3 µM | [10] 2.34 µM | [11] 3.29 µM | [12] 12.3 µM | [14] 11.4 µM | [15] 7.85 µM | [16] 16.2 µM

COC(=O)C1C(=O)CC2CCCCC21 (stereo not drawn)
inactive: [1] > 100 µM | [2] > 100 µM | [3] > 100 µM | [4] > 100 µM | [5] > 100 µM | [6] > 100 µM | [7] > 100 µM | [8] > 100 µM | [10] > 100 µM | [11] > 100 µM | [12] > 100 µM | [13] > 100 µM | [14] > 100 µM | [15] > 100 µM | [16] > 100 µM

CC1(C=O)C(=O)CCC2(C)C3CC(=O)OC3CCC12 (stereo not drawn)
inactive: [1] > 100 µM | [2] > 100 µM | [3] > 100 µM | [4] > 100 µM | [5] > 100 µM | [6] > 100 µM | [7] > 100 µM | [8] > 100 µM | [9] > 100 µM | [10] > 100 µM | [11] > 100 µM | [12] > 100 µM | [13] > 100 µM | [14] > 100 µM | [16] > 100 µM

O=C(O)c1ccc(C2COc3ccc(Cl)cc3C2)cc1 (stereo not drawn)
inactive: [1] > 100 µM | [2] > 100 µM | [3] > 100 µM | [4] > 100 µM | [5] > 100 µM | [6] > 100 µM | [7] > 100 µM | [9] > 100 µM | [10] > 100 µM | [11] > 100 µM | [12] > 100 µM | [13] > 100 µM | [14] > 100 µM | [15] > 100 µM | [16] > 100 µM

Clc1ccccc1CN1COc2c(ccc3cccnc23)C1
inactive: [1] 4.28 µM | [2] 3.75 µM | [3] 2.88 µM | [4] 3.5 µM | [5] 15.7 µM | [6] 3.98 µM | [7] 2.59 µM | [8] 3.6 µM | [9] 3.2 µM | [10] 3.59 µM | [11] 3.61 µM | [12] 2.77 µM | [13] 8.05 µM | [14] 6.93 µM | [16] 3.09 µM
